Among the data in PubChem BioAssay (NCI) are TGI values, retold here.

Test systems include P388/ADR leukemia; SN12K1 renal; P388 leukemia; DMS 273 small cell lung; KM20L2 colon; M19-MEL melanoma; M14 melanoma; BT-549 breast; CAKI-1 renal; LXFL 529 NSCLC; T-47D breast; MDA-N; HS 578T breast; DU-145 prostate; MDA-MB-231 breast.
Holding throughout (assay): NCI tumour cell line growth inhibition, 48 h

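96-well plates; 48 h exposure; 5 concentrations. Endpoints by linear interpolation between flanking doses. Not reached: highest tested concentration assigned. Definition used: TGI = concentration required for complete inhibition of growth.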

Take `Nc1ccc(N=Nc2ccc(/C=C/c3ccc(N=Nc4ccc(N)c5ccc(S(=O)(=O)O)cc45)cc3S(=O)(=O)O)c(S(=O)(=O)O)c2)c2cc(S(=O)(=O)O)ccc12`: the TGI in the test on P388/ADR leukemia, in the test on SN12K1 renal, in the test on P388 leukemia, with DMS 273 small cell lung, with KM20L2 colon and in the test on M19-MEL melanoma was more than 100 µM in each case.

Regarding `O=c1c2cc(I)ccc2nc(-c2cccs2)n1Nc1ccccc1`, the TGI with M14 melanoma is more than 100 µM; in the test with BT-549 breast, more than 100 µM; in the test on CAKI-1 renal, 65.9 µM.

For the compound `CC(SC1=CC(=O)c2c(Cl)ccc(O)c2C1=O)C(=O)O` (configuration not stated), the figures for the TGI in the test with LXFL 529 NSCLC, in the test with DMS 273 small cell lung and in the test with KM20L2 colon were 29.5 µM, 35.6 µM and more than 100 µM, respectively.

In the case of `CC1CN=C(NCc2ccccc2)S1` (configuration not stated), the TGI in the test with M14 melanoma, in the test on T-47D breast, with BT-549 breast, in the test on MDA-N, with HS 578T breast and in the test with DU-145 prostate was more than 100 µM in each case. Moreover, the TGI with MDA-MB-231 breast is more than 100 µM.

Consider `C1CSCC2(COC2)CS1`, for which the TGI with MDA-N, in the test with HS 578T breast and in the test on DU-145 prostate was more than 100 µM throughout.
